Test results: ChEMBL document CHEMBL1201862, “PubChem BioAssay data set” (2004)
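48-hour exposure; five concentrations; linearly interpolated endpoints. GI50 = concentration required for 50% inhibition of growth.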 The source made the active and inactive calls. No stated cut-off is given here; in the data, active = GI50 up to about 1.1 µM and inactive = higher.

Columns and labels:
Assay in all cases: growth of human tumour cells (NCI), 48 h
[1] = tested on: IGROV-1
[2] = tested on: CCRF-CEM
[3] = tested on: BT-549
[4] = tested on: SF-268
[5] = tested on: NCI/ADR-RES
[6] = tested on: SNB-75
[7] = tested on: HCT-116
[8] = tested on: UACC-257
[9] = tested on: 786-0
[10] = tested on: NCI-H522
[11] = tested on: HOP-92
[12] = tested on: MCF7
[13] = tested on: SK-MEL-5
[14] = tested on: SW-620
[15] = tested on: NCI-H460
[16] = tested on: EKVX
[17] = tested on: OVCAR-5
[18] = tested on: NCI-H23
[19] = tested on: SF-295
[20] = tested on: RPMI-8226

SMILES | GI50 [1] | GI50 [2] | GI50 [3] | GI50 [4] | GI50 [5] | GI50 [6] | GI50 [7] | GI50 [8] | GI50 [9] | GI50 [10] | GI50 [11] | GI50 [12] | GI50 [13] | GI50 [14] | GI50 [15] | GI50 [16] | GI50 [17] | GI50 [18] | GI50 [19] | GI50 [20]
O=C(NNC(=S)Nc1ccc(Cl)cc1)C12CC3CC(CC(C3)C1)C2 | 3.34 µM (inactive) | 1.29 µM (inactive) | 11.6 µM (inactive) | 6.05 µM (inactive) | 3.56 µM (inactive) | 15.6 µM (inactive) | 2.57 µM (inactive) | 6.15 µM (inactive) | 5.15 µM (inactive) | 3.58 µM (inactive) | 11.3 µM (inactive) | 3.37 µM (inactive) | 3.85 µM (inactive) | 3.76 µM (inactive) | 2.97 µM (inactive) | 5.73 µM (inactive) | 20.3 µM (inactive) | 7.5 µM (inactive) | 5.87 µM (inactive) | 
CCCCC[C@H](O)[C@H](C)C=C1SCCCS1 | > 100 µM (inactive) | > 100 µM (inactive) | > 100 µM (inactive) | > 100 µM (inactive) | > 100 µM (inactive) | > 100 µM (inactive) | > 100 µM (inactive) | > 100 µM (inactive) | > 100 µM (inactive) | > 100 µM (inactive) | > 100 µM (inactive) | > 100 µM (inactive) | > 100 µM (inactive) | > 100 µM (inactive) |  | > 100 µM (inactive) | > 100 µM (inactive) | > 100 µM (inactive) | > 100 µM (inactive) | > 100 µM (inactive)
CC[C@H]1C=CCC[C@@]2(C[C@@H]3CC[C@H]4[C@H](C(=O)OCCCCCCCCCCCCCCCC(=O)N(CCCN)C[C@@H](O)CCN)[C@]5(CCC[C@@H](C)O5)NC(=[N+]34)N2)O1 | 0.615 µM (active) |  | 1.71 µM (inactive) | 1.11 µM (active) | 1.63 µM (inactive) |  | 0.344 µM (active) | 0.604 µM (active) | 0.543 µM (active) | 1.04 µM (active) | 0.318 µM (active) | 0.421 µM (active) | 0.268 µM (active) | 0.604 µM (active) | 0.52 µM (active) | 1.08 µM (active) | 0.429 µM (active) | 1.34 µM (inactive) | 1.63 µM (inactive) | 0.177 µM (active)
O=C(C(Cl)=C(Nc1ccccc1)Nc1ccccc1)C(Cl)Cl | 32.1 µM (inactive) | 28.5 µM (inactive) | 37.2 µM (inactive) | 31.7 µM (inactive) | 40.6 µM (inactive) |  | 17.3 µM (inactive) | 82.8 µM (inactive) | 22.5 µM (inactive) | 19.7 µM (inactive) | 21.8 µM (inactive) | 23.9 µM (inactive) | 14.9 µM (inactive) | 18.8 µM (inactive) | 25.1 µM (inactive) | 22.6 µM (inactive) |  | 41.4 µM (inactive) | 34 µM (inactive) | 29.6 µM (inactive)
Cc1c(O)c(OC2OC(CO)C(O)C(O)C2O)cc2c1C=C[C@@H]1[C@@]2(C)C(=O)C[C@]2(C)[C@@H]([C@@](C)(O)C(O)/C=C/C(C)(C)O)[C@H](O)C[C@@]12C (some centres not stated) | > 100 µM (inactive) | > 100 µM (inactive) | > 100 µM (inactive) | > 100 µM (inactive) | > 100 µM (inactive) | > 100 µM (inactive) | > 100 µM (inactive) | > 100 µM (inactive) | > 100 µM (inactive) | > 100 µM (inactive) | > 100 µM (inactive) | > 100 µM (inactive) | > 100 µM (inactive) | > 100 µM (inactive) | > 100 µM (inactive) | > 100 µM (inactive) | > 100 µM (inactive) | > 100 µM (inactive) | > 100 µM (inactive) | 
COc1ccc(Nc2nn3c(=O)c4c(C)c(C)sc4nc3s2)cc1 | 42.2 µM (inactive) | 31.6 µM (inactive) | > 100 µM (inactive) | 5.98 µM (inactive) | 39.1 µM (inactive) | 22.7 µM (inactive) | 26.7 µM (inactive) | 29.9 µM (inactive) | 23.2 µM (inactive) | 25.5 µM (inactive) | 27.3 µM (inactive) | 34.8 µM (inactive) | 41.1 µM (inactive) | 55.7 µM (inactive) | 28.6 µM (inactive) |  | 52.4 µM (inactive) | 18.7 µM (inactive) | 37.7 µM (inactive) | 
COc1ccc(-c2nnc3n(Cc4ccccc4)c4ccccc4n3c2=O)cc1 | 13.3 µM (inactive) | > 100 µM (inactive) | > 100 µM (inactive) | 22.7 µM (inactive) | 55.8 µM (inactive) | 11.9 µM (inactive) | 38.7 µM (inactive) | 37.4 µM (inactive) | 10.9 µM (inactive) | 17.3 µM (inactive) | 19.4 µM (inactive) | 29.4 µM (inactive) | 53.5 µM (inactive) | > 100 µM (inactive) | 33.5 µM (inactive) | 29.8 µM (inactive) | 42.8 µM (inactive) | 31.3 µM (inactive) | 15.9 µM (inactive) | 
CC(=O)[C@H]1[C@H](O)C[C@@]2(C)[C@@H]3CCc4cc(O)c(OC5OC(CO)C(O)C(O)C5O)cc4C3(C)C(=O)C[C@]12C (some centres not stated) | > 100 µM (inactive) | > 100 µM (inactive) | > 100 µM (inactive) | > 100 µM (inactive) | > 100 µM (inactive) | > 100 µM (inactive) | > 100 µM (inactive) | > 100 µM (inactive) | > 100 µM (inactive) | > 100 µM (inactive) | > 100 µM (inactive) | > 100 µM (inactive) | > 100 µM (inactive) | > 100 µM (inactive) | > 100 µM (inactive) | > 100 µM (inactive) | > 100 µM (inactive) | > 100 µM (inactive) | > 100 µM (inactive) | 
Clc1ccc(OCc2nnc(CCCCCCCCc3nnc(COc4ccc(Cl)cc4Cl)n3Nc3ccccc3)n2Nc2ccccc2)c(Cl)c1 | 13 µM (inactive) |  | 17.9 µM (inactive) | 14.2 µM (inactive) | 11.9 µM (inactive) | 23 µM (inactive) | 11.4 µM (inactive) | 10.8 µM (inactive) | 15.2 µM (inactive) | 8.75 µM (inactive) | 17.4 µM (inactive) | 7.06 µM (inactive) | 2.23 µM (inactive) | 12.7 µM (inactive) | 4.15 µM (inactive) | 19 µM (inactive) | 9.23 µM (inactive) | 15.1 µM (inactive) | 1.38 µM (inactive) | 2.34 µM (inactive)
C=C(C)[C@@H]1CC[C@@]2(C)[C@H]1[C@H]1CCC3[C@@]4(C)CC[C@H](O)C(C)(C)[C@@H]4CC[C@@]3(C)[C@]1(C)C[C@@H]2O (some centres not stated) [CALENDULADIOL] | 60.3 µM (inactive) | 19.2 µM (inactive) | > 100 µM (inactive) | 87.1 µM (inactive) | 56.9 µM (inactive) | 27.3 µM (inactive) | 43.5 µM (inactive) | 55.2 µM (inactive) | 38 µM (inactive) | 17.6 µM (inactive) | 92.3 µM (inactive) | 22.8 µM (inactive) | 19.1 µM (inactive) | 41.9 µM (inactive) | 23 µM (inactive) | 33.7 µM (inactive) | 63.2 µM (inactive) | > 100 µM (inactive) | 23.7 µM (inactive) | 
